Measured values published in patent publication US20100068184A1, “LIVING BODY HEALING ACCELERATOR” (AUREO CO., LTD., priority 2006, published 2010).

Assays:
[1] = tested on: mouse carrying diabetes caused by streptozotocin; test: Test for accelerating normalization of a blood glucose level; assay type: in vivo, mice; details: 200 mg/kg intraperitoneal (positive control group)
Protocol: The test was performed by using mice, in each of which a diabetes was induced by streptozotocin, and also by comparing blood glucose levels before and after administration of test samples. In Table 3, the “normal group” indicates a blood glucose level in the normal state where treatment with streptozotocin is not performed. On the other hand, the “negative control group” indicates a blood glucose level in a mouse in which diabetes was generated by being subjected to treatment with streptozotocin. The “positive control group” indicates a blood glucose level when tolbutamide which was an accelerator of insulin secretion (200 mg/kg) was administered to a mouse carrying diabetes caused by streptozotocin. The “test A group” and “test B group” each indicates a blood glucose level when each of the Aureobasidium culture solution (2 g/kg and 10 g/kg) was administered to a mouse carrying diabetes caused by streptozotocin. It is to be noted that each sample was intrapenitoreally administered.
FIG. 6 is plotted with the ordinate axis indicating a blood glucose level and with the abscissa axis indicating treatment performed to each group of the tested mice. A left bar in each group represents an average value of blood glucose levels before administration of the test sample, while a right bar represent an average value of blood glucose levels after administration of the test sample.

[2] = tested on: sarcoma; test: Sarcoma-implanted mice: change in tumor volume; assay type: in vivo; details: 5-FU 20 mg/kg/day oral in drinking water (group A), vs control group
Protocol: The above result obviously indicates the characteristics of the treatment with an anticancer drug, and in this type of treatment, the anticancer drug can suppress growth of a tumor, but normal cells are damaged by toxicity of the anticancer drug. This negative aspect spoils the positive result of the treatment with an anticancer drug. […] The dose of 2 g/kg/day corresponds to 30 mg/kg/day in administration with respect to the solid content (1.5%).

[3] = tested on: leukemia-originated tumor cell P388; test: Anti-leukemia test (survival rate); assay type: in vivo, mice; details: group A, 5-FU 2.0 mg/kg oral, 40 days after implantation
Protocol: The test was carried out according to the ordinary method by using mice each with the leukemia-originated tumor cell P388 implanted therein and also by comparing survival rates of the mice after the test samples were administered. Just after the tumor was implanted, each test sample was orally administered by mixing the sample in water in a bottle for drinking water and making the mice freely drink the water. […] 10 mice were used for one test sample group.

SMILES | descent percentage of blood glucose level [1] [%] | volume of the tumor [2] | survival rate [3] [%]
CCCCNC(=O)NS(=O)(=O)c1ccc(C)cc1 [tolbutamide] | 17.4 | – | –
O=c1[nH]cc(F)c(=O)[nH]1 [5-FU, 5-fluorouracil] | – | significantly restrained | 80
